Source: US20260027094A1, “USE OF PYRIDONE DERIVATIVE” (GUANGZHOU JOYO PHARMATECH CO., LTD, priority 2022, published 2026)

Tests used:
[1] = system: TNBS-induced SD rat models of chronic colitis with intestinal fibrosis; test: Pharmacodynamic experiment of TNBS-induced rat models of chronic colitis with intestinal fibrosis; format: in vivo, SD rats
Source text: • 1) Animals: SD rats, specific pathogen-free (SPF) grade, male, aged 7 to 8 weeks at the time of grouping, with 10 rats per group. The animals were supplied by Beijing HFK Bioscience Co., Ltd. • 2) Reagents, positive drugs, and test drugs • A. Reagents
• B. Positive Drugs: Sulfasalazine Colon-Soluble Capsules, Supplied by Guangdong Qiangji Pharmaceutical Co., Ltd. • C. Test Drug: Compound I, Supplied by Guangzhou JOYO Pharmatech Co., Ltd. • 3) Modeling method
TNBS two-enema method: After the adaptation period inspection and observation were qualified, experimental animals were screened by body weight and randomly divided into six experimental groups based on body weight. The groups included a normal control group, a model control group, a positive drug treatment group, a test compound low dose treatment group, a test compound medium dose treatment group, and a test compound high dose treatment group, with 10 rats in each group. On the day of grouping, animals in the normal control group were administered 50% ethanol solution via enema, while animals in the other groups were administered TNBS ethanol solution via enema. The dose of TNBS was 30 mg per animal, with the induction of the model performed twice at a frequency of once every two weeks. The experimental period lasted for 4 weeks, during which all animals were given normal access to water and food. • 4) Grouping and administration
The Disease Activity Index (DAI) scoring was performed on each group of experimental animals based on indicators such as animal body weight, stool morphology and characteristics, and occult blood or hematochezia. Scoring was performed after model induction, once a day for 10 consecutive days, for a total of 2 rounds.
Note: The DAI score was performed based on the percentage of body weight loss, stool morphology, and progression of blood in the stool. Statistical analysis was conducted comprehensively using these three scoring indicators. • 6) Endpoint sample collection, histopathological analysis, and hydroxyproline content analysis • A. After euthanizing the animals with pentobarbital sodium anesthesia, the colon, i.e., the segment from the end of cecum to the anus, was excised. The intestinal segment was flushed with normal saline, and the entire colon was evenly divided into upper, middle, and lower segments. The middle segment of the colon was further divided, with part of the tissue quickly frozen in liquid nitrogen and stored in a −80° C. refrigerator for measuring the total hydroxyproline levels in the middle segment samples of the colon of animals in each group. The remaining middle segment tissue was fixed in 10% formaldehyde, embedded in paraffin, and sectioned into 3 μm-thick slices. These slices were then deparaffinized in xylene, rehydrated through a graded ethanol series, subjected to H&E staining and Masson staining, dehydrated, cleared, sealed, and observed under a microscope to capture histopathological changes. Routine tissue freezing was performed. • B. Histopathological analysis
• a: Based on the Masson staining results, the area of collagen staining-positive regions and the total area of samples from the middle segment samples of the colon (submucosa and muscularis) of animals in each experimental group were statistically analyzed using Image J to calculate the collagen volume fraction (CVF %) of each sample. • C. Detection of hydroxyproline levels in the colon
The middle segment samples of the colon were processed according to the instructions, using the hydroxyproline detection kit. The total hydroxyproline levels in the middle segment samples of the colon of animals in each group were measured.

[2] = system: carbon tetrachloride-induced SD rat models of liver fibrosis; test: In vivo pharmacodynamic study on carbon tetrachloride-induced rat models of liver fibrosis; parameters: species or system SD rats
Source text: • 1) Animals: SD rats, specific pathogen-free (SPF) grade, male, aged 7 to 8 weeks at the time of grouping, with 10 mice per group. The animals were supplied by Beijing HFK Bioscience Co., Ltd. • 2) Reagents, positive drugs, and test drugs • A. Reagents
• B. Positive Drug: Pirfenidone, Supplied by Biochempartner. • C. Test Drug: compound I, supplied by Guangzhou JOYO Pharmatech Co., Ltd. • 3) Modeling method
Intraperitoneal injection method of carbon tetrachloride: After the adaptation period inspection and observation were qualified, experimental animals were screened by body weight and randomly divided into a normal control group and a model induction group. Starting on the first day of grouping, animals in the model induction group were intraperitoneally injected with a 20% carbon tetrachloride solution dissolved in corn oil, at a modeling frequency of twice a week for six consecutive weeks. After two weeks of carbon tetrachloride induction, animals in the model induction group were randomly subdivided a second time into 5 experimental groups based on their alanine transaminase (ALT) levels (with body weight used as a calibration factor), including the model control group, positive drug treatment group, test compound low dose treatment group, test compound medium dose treatment group, and test compound high dose treatment group. Animals in the normal control group were administered the corresponding vehicle. The experimental period lasted for 6 weeks, during which all animals were given normal access to water and food. • 4) Grouping and administration info
• a: The test compound vehicle was an aqueous solution of 0.5% (w/v) methylcellulose and 0.2% (v/v) Tween 80. • b: An aqueous solution of 0.5% (w/v) methylcellulose and 0.2% (v/v) Tween 80 was used as the vehicle and prepared to the required concentration. • 5) Endpoint sample collection, histopathological analysis, and hydroxyproline content analysis. • A. After euthanizing the animals with pentobarbital sodium anesthesia, the liver was excised and rinsed with normal saline. The liver was divided into three segments: the large lobe, the left lobe, and the right-middle lobe. The large lobe tissue was quickly frozen in liquid nitrogen and stored in a −80° C. refrigerator for measuring the total hydroxyproline levels of animal liver samples in each group. The tissues of left lobe and right-middle lobe of liver were fixed in 10% formaldehyde, embedded in paraffin, and sectioned into 3 μm-thick slices. These slices were then deparaffinized in xylene, rehydrated through a graded ethanol series, subjected to Sirius Red staining, dehydrated, cleared, sealed, and observed under a microscope to capture histopathological changes. Routine tissue freezing was performed. • B. Analysis of fibrosis levels in liver tissue sections;
Based on Sirius Red staining results of liver sections, 1) fibrosis staging was scored according to the scoring criteria listed in Table 3; 2) using Image J, the liver fibrotic area and the total sample area of animals in each experimental group were counted to calculate the collagen volume fraction (CVF %) for each sample. • C. Detection of hydroxyproline levels in liver
The liver large lobe samples were processed according to the instructions using the hydroxyproline detection kit. The total hydroxyproline levels in the liver samples of animals in each group were detected.

[3] = sulfasalazine 50 mg/kg twice a day for 4 weeks, colon middle segment, model control 2.00 ± 0.00
[4] = sulfasalazine 50 mg/kg twice a day, relative to model control group

Compound | AUC(0-10 d) (D 0-D 10) of DAI scores ([1]; sulfasalazine 50 mg/kg oral gavage twice a day, after first TNBS induction, mean ± SD) | AUC(14-24 d) (D 14-D 24) of DAI scores ([1]; sulfasalazine 50 mg/kg oral gavage twice a day, after second TNBS induction, mean ± SD) | Proliferation of connective tissue and fibrosis process in submucosa and muscularis of the colon ([1]; sulfasalazine 50 mg/kg twice a day) | CVF (%) of colon middle segment ([1]; sulfasalazine 50 mg/kg twice a day for 4 weeks, Masson staining, model control 6.39 ± 3.16, normal 0.74 ± 0.32) [%] | Inflammatory response (points), histopathological score of colon tissue [1, 3] [points] | Tissue ulcer (points), histopathological score of colon tissue [1, 3] [points] | HYP (μg/g) of colon middle segment ([1]; sulfasalazine 50 mg/kg twice a day for 4 weeks, model control 2109.99 ± 385.85, normal 1141.78 ± 106.42) [µg/g] | Change rate of AUC(0-10 d) (%) [1, 4] [%] | Change rate of AUC(14-24 d) (%) [1, 4] [%] | Liver fibrosis score (points) ([2]; pirfenidone 150 mg/kg oral gavage twice a day for 4 weeks, Sirius Red staining, model control 4.90 ± 0.88) | Liver CVF (%) ([2]; pirfenidone 150 mg/kg twice a day for 4 weeks, model control 8.75 ± 2.39, normal 1.24 ± 0.23) | Liver HYP content ([2]; pirfenidone 150 mg/kg twice a day for 4 weeks, model control 702.84 ± 173.44, normal 307.30 ± 78.13) [µg/g] | Liver histopathological improvement under light microscope ([2]; pirfenidone 150 mg/kg twice a day, Sirius Red)
O=C(O)c1cc(/N=N/c2ccc(S(=O)(=O)Nc3ccccn3)cc2)ccc1O [Sulfasalazine, reference compound] | 29.80 ± 2.79 | 11.70 ± 1.69 | significant improvements and healing | 2.67 ± 1.06 | 0.60 ± 0.52 | 0.50 ± 0.53 | 1299.79 ± 161.27 | −34.86 | −51.35 |  |  |  | 
Cc1ccc(=O)n(-c2ccccc2)c1 [Pirfenidone, reference compound] |  |  |  |  |  |  |  |  |  | 5.40 ± 0.52 | 6.58 ± 2.20 | 611.19 ± 183.66 | no significant improvement
